Test results taken from PMC10714751 (Microbiology Spectrum, 2023).
Values after ≈ are worked out from the molar mass of the structure shown. Starred links: 1 amine or outer side, 2 acyl side, 3 side chain; linkers in the order of their positions; H or OH if unused. Positions of bridges follow the written chain, without caps; N, C: chain ends. Non-standard residues stand in square brackets, D forms with d. Residues, ends and D or L forms follow the SMILES beside them. *: point of attachment. dAsp(3R-OH) = N[C@@H](C(=O)O)[C@@H](O)C(=O)O; Palmitoleoyl = CCCCCC/C=C\CCCCCCCC(=O)*; X1 = NC[C@H](O)[C@@H](N[*:1])C(=O)[*:2]; X2 = CCC(C)(O)[C@H](N[*:1])C(=O)[*:2]; d(aIle) = CC[C@H](C)[C@@H](N)C(=O)O; d(aThr) = C[C@@H](O)[C@@H](N)C(=O)O; Myristoyl = CCCCCCCCCCCCCC(=O)*; dOrn = NCCC[C@@H](N)C(=O)O; X3 = CC[C@H](C)CCCCC(=O)*; hSer = N[C@@H](CCO)C(=O)O; Dab = NCC[C@H](N)C(=O)O

What was measured:
[1] = test system: Yersinia pestis; details: cited from earlier work
[2] = test system: E. coli DH5α; test: Antimicrobial broth dilution assay
[3] = test system: E. coli C600; test: Antimicrobial broth dilution assay; details: MTT
[4] = test system: A. baylyi ADP1 ΔpldA; test: Broth dilution assay against pldA knockout; details: Fig. S4
[5] = test system: Keio E. coli mlaA knockouts (ΔmlaA); test: Broth dilution assay against Keio mlaA knockouts; details: triplicate, three biological replicates
[6] = test system: A. baumannii AB5075UW ΔlpxC::ISAbaI; test: Broth dilution assay against LpxC-deficient mutant; details: MIC90 ΔlpxC vs WT 5075UW, Fig. 2A
[7] = test system: E. coli ΔompC, ΔompF; test: Broth dilution assay against OmpC and OmpF knockouts
[8] = test system: A. baumannii Tn26-mlaA insertion strains AB8497, AB8498, AB8499; test: Broth dilution assay against mlaA transposon mutants; details: for sensitivity of the mlaA mutants in comparison to the wild type: AB8497, AB8498, AB8499; for change of MIC90 against AB8497 versus wild type: mlaA insertion at position 132, twofold dilutions from 20 µg/mL; for change of MIC90 against AB8497 versus wild type / change of MIC90 against AB8499 versus wild type: 10 µg/mL tetracycline; for change of MIC90 against AB8499 versus wild type: mlaA insertion at position 507
[9] = test system: evolved turnercyclamycin B-resistant E. coli DH5α; test: Broth dilution assay against evolved resistant strains
[10] = test system: pBR322 in DH5α; test: Antimicrobial broth dilution assay, empty vector control; details: MTT
[11] = test system: pBR322 in C600; test: as above; details: MTT
[12] = test system: pGDP2-MCR-1 in DH5α; test: Antibiotic susceptibility testing of MCR-1-expressing E. coli
[13] = test system: pGDP2-MCR-1 in C600; test: as above; details: broth dilution, MTT
[14] = Pharmacokinetics in mice; format: in vivo; details: 5mg/kg IV, plasma, LC-MS/MS
Description: Eurofins used mice from BioLASCO Taiwan.
Protocols were performed at Eurofins (Taiwan). Turnercyclamycin A in plasma was measured by liquid chromatography-tandem mass spectrometry, and graphs illustrating the mean plasma concentrations (mean ± SD) over time were generated. PK parameters were obtained using non-compartmental analysis of the plasma data with WinNonlin.

[15] = test system: E. coli DH5α; test: Evolution of turnercyclamycin-resistant E. coli by sublethal dose passaging; details: for time of exposure to reach 32× the original MIC90: daily serial passaging, up to 63 d
[16] = female, BALB/c, mouse, mice, non-compartmental analysis

CC[C@H](C)CCCCC(=O)N[C@@H](CCN)C(=O)N[C@H](C(=O)N[C@@H](CCN)C(=O)N[C@H]1CCNC(=O)[C@H]([C@@H](C)O)NC(=O)[C@H](CCN)NC(=O)[C@H](CCN)NC(=O)[C@H](CC(C)C)NC(=O)[C@@H](CC(C)C)NC(=O)[C@H](CCN)NC1=O)[C@@H](C)O [Colistin, colistin (polymyxin E)] (X3-[Dab]T[Dab][Dab][Dab][dL]L[Dab][Dab]T; lactam 4-C)
susceptibility of Yersinia pestis after LPS modification with 4-amino-4-deoxy-L-arabinose [1]: blocked
MIC90 ([2]; DH5α WT (Table 2)): 0.5 µg/mL (≈ 0.428 µM)
MIC90 ([2]; text summary: both E. coli parent and vector-control strains (DH5α and C600)): 0.5 µg/mL (≈ 0.428 µM)
MIC90 [3]: 0.5 µg/mL (≈ 0.428 µM)
resistance of ΔpldA strain compared with WT A. baylyi ADP1 [4]: did not significantly demonstrate resistance
MIC90 [5]: 0.25 µg/mL (≈ 0.214 µM)
loss in susceptibility of A. baumannii ΔlpxC in comparison to the wild-type strain [6]: greater than fourfold
resistance of OmpC and OmpF knockouts [7]: not resistant
sensitivity of the mlaA mutants in comparison to the wild type [8]: potentially slightly more sensitive
MIC90 ([9]; Strain 1): 0.5 µg/mL (≈ 0.428 µM)
MIC90 ([9]; Strain 2 (found contaminated with Staphylococcus)): 0.5 µg/mL (≈ 0.428 µM)
MIC90 ([9]; Strain 3): 0.5 µg/mL (≈ 0.428 µM)
MIC90 ([9]; Strain 4): 0.5 µg/mL (≈ 0.428 µM)
MIC90 ([9]; Strain 5): 0.5 µg/mL (≈ 0.428 µM)
MIC90 [10]: 0.5 µg/mL (≈ 0.428 µM)
MIC90 [11]: 1 µg/mL (≈ 0.855 µM)
loss of potency against strains expressing mcr-1 versus parent ([12]; MIC90 ratio mcr-1 strains / parent strains): 16 fold
MIC90 ([12]; text summary: strains expressing mcr-1 (DH5α and C600)): 8 µg/mL (≈ 6.84 µM)
MIC90 [13]: 8 µg/mL (≈ 6.84 µM)

CO[C@H]1/C=C/O[C@@]2(C)Oc3c(C)c(O)c4c(O)c(cc(O)c4c3C2=O)NC(=O)/C(C)=C\C=C\[C@H](C)[C@H](O)[C@@H](C)[C@@H](O)[C@@H](C)[C@H](OC(C)=O)[C@@H]1C [Rifamycin, rifamycin]
sensitivity of the mlaA mutants in comparison to the wild type [8]: increase in sensitivity

CCCCCCCCCCCCCC(=O)N[C@H](CCCN)C(=O)N[C@@H](CO)C(=O)N[C@H](C(=O)N[C@@H](C(=O)N[C@@H](C(=O)N[C@H]1C(=O)NCC(=O)N[C@@H](C(C)(O)CC)C(=O)N[C@H]([C@@H](C)CC)C(=O)N[C@@H](CCO)C(=O)N[C@@H](C)C(=O)N[C@H]([C@@H](C)CC)C(=O)N[C@@H](CCC(=O)O)C(=O)O[C@@H]1C)[C@@H](O)CN)[C@@H](O)C(=O)O)C(C)C (stereo partly drawn) [Turnercyclamycin A] (Myristoyl-[dOrn]SV[dAsp(3R-OH)][X1][d(aThr)]G[X2][d(aIle)][hSer]A[d(aIle)]E; ester 6-C)
AUC/D ([14]; mice, non-compartmental analysis): 58080 kg·ng·h/mL/mg
half-life ([14]; BALB/c, mouse, ALB/c female mice, non-compartmental analysis (WinNonlin)): 4.35 h
AUC(0-inf) [14, 16]: 290 µg·h/mL
AUC(0-t) [14, 16]: 285 µg·h/mL
C0 [14, 16]: 33700 ng/mL
clearance ([14]; female, BALB/c, mouse, mice, non-compartmental analysis, read-out: CL (clearance rate) (converted)): 0.29 mL/min/kg
MRT ([14]; female, BALB/c, mouse, mice, non-compartmental analysis, read-out: MRT (mean residence time)): 5.83 h
Vd ([14]; female, BALB/c, mouse, mice, non-compartmental analysis, read-out: VSS (Vd at steady state)): 0.1 L/kg
loss in susceptibility of A. baumannii ΔlpxC in comparison to the wild-type strain [6]: greater than fourfold
change of MIC90 against AB8497 versus wild type [8]: retained wild-type potency
change of MIC90 against AB8499 versus wild type [8]: retained wild-type potency
sensitivity of turnercyclamycin B-resistant strains compared with wild type ([9]; Table 2, Fig. S3): more sensitive
resistance reached by serial passaging (× original MIC90) ([15]; daily passaging at sub-MIC for 63 d): 8 ×
time of exposure to reach 32× the original MIC90 [15]: > 63 days

CCCCCC/C=C\CCCCCCCC(=O)N[C@H](CCCN)C(=O)N[C@@H](CO)C(=O)N[C@H](C(=O)N[C@@H](C(=O)N[C@@H](C(=O)N[C@H]1C(=O)NCC(=O)N[C@@H](C(C)(O)CC)C(=O)N[C@H]([C@@H](C)CC)C(=O)N[C@@H](CCO)C(=O)N[C@@H](C)C(=O)N[C@H]([C@@H](C)CC)C(=O)N[C@@H](CCC(=O)O)C(=O)O[C@@H]1C)[C@@H](O)CN)[C@@H](O)C(=O)O)C(C)C (stereo partly drawn) [Turnercyclamycin B] (Palmitoleoyl-[dOrn]SV[dAsp(3R-OH)][X1][d(aThr)]G[X2][d(aIle)][hSer]A[d(aIle)]E; ester 6-C)
change of MIC90 against AB8497 versus wild type [8]: doubled
change of MIC90 against AB8499 versus wild type [8]: fourfold
time of exposure to reach 32× the original MIC90 [15]: 8 to 14 days
